Columns and labels:
IKZF3 = biological target: T1, IKZF3 (Homo sapiens, UniProt Q96SW2+Q9UKT9); test: Western-blot assay of substrate protein degradation in hPBMCs, IKZF3; type: cell-based; conditions: 24 hours of compound treatment
T1 construct: endogenous in cells; host or cells: hPBMCs (Milecell Biotechnologies)

IKZF1 = biological target: T2, IKZF1 (Homo sapiens, UniProt Q13422+Q96SW2); test: Western-blot assay of substrate protein degradation in hPBMCs, IKZF1; type: cell-based; conditions: 24 hours of compound treatment
T2 construct: endogenous in cells; host or cells: hPBMCs (Milecell Biotechnologies)

[1] = test system: Human acute T lymphocytic leukemia cells (Molt-4); test: Tumor cell proliferation inhibition (CellTiter-Meiluncell Luminescent Cell Viability Assay), Molt-4; conditions: MOLT-4, 96 h, read-out: inhibitory activity (IC50, nM) against tumor cells proliferation, Molt 4
IKZF2 = biological target: T3, IKZF2 (Homo sapiens, UniProt Q96SW2+Q9UKS7); test: Western-blot assay of substrate protein degradation in hPBMCs, IKZF2; type: cell-based; conditions: 24 hours of compound treatment
T3 construct: endogenous in cells; host or cells: hPBMCs (Milecell Biotechnologies)

[2] = biological target: T4, human Cereblon WT GST-tagged protein (Homo sapiens, UniProt Q96SW2); test: CRBN-binding affinity by HTRF (CEREBLON BINDING kit); conditions: HTRF inhibitory activity, CEREBLON BINDING kit; read-out: HTRF IC50
T4 construct: purchased CISBIO 64BDCRBNPEH

CK1α = biological target: T5, CK1α (Homo sapiens, UniProt P48729+Q96SW2); test: Western-blot assay of substrate protein degradation in hPBMCs, CK1α; type: cell-based; conditions: 24 hours of compound treatment
T5 construct: endogenous in cells; host or cells: hPBMCs (Milecell Biotechnologies)

GSPT1 = biological target: T6, GSPT1 (Homo sapiens, UniProt P15170+Q96SW2); test: Western-blot assay of substrate protein degradation in hPBMCs, GSPT1; type: cell-based; conditions: 24 hours of compound treatment
T6 construct: endogenous in cells; host or cells: hPBMCs (Milecell Biotechnologies)

WEE1 = biological target: T7, WEE1 (Homo sapiens, UniProt P30291+Q96SW2); test: Western-blot assay of substrate protein degradation in hPBMCs, WEE1; type: cell-based; conditions: 24 hours of compound treatment
T7 construct: endogenous in cells; host or cells: hPBMCs (Milecell Biotechnologies)

[3] = compounds tested at 50 nM and 500 nM (concentration of the table not stated)
[4] = 50 nM and 500 nM tested (concentration behind the class not stated)

T6 sequence (P15170 whole entry): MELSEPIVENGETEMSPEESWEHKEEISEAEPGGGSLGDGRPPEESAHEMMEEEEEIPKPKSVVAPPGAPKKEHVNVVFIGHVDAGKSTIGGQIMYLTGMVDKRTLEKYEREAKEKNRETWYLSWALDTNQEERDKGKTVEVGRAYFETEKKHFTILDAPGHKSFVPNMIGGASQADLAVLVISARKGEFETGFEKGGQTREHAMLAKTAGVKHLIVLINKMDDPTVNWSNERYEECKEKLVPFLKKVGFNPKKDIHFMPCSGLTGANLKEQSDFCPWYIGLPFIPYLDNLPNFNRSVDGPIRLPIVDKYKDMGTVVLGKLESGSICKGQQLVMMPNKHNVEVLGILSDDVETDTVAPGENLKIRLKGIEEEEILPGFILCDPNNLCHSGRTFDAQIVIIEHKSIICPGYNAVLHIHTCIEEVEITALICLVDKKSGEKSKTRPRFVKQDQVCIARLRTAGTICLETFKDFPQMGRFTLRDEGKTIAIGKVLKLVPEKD
T6 sequence (Q96SW2 whole entry): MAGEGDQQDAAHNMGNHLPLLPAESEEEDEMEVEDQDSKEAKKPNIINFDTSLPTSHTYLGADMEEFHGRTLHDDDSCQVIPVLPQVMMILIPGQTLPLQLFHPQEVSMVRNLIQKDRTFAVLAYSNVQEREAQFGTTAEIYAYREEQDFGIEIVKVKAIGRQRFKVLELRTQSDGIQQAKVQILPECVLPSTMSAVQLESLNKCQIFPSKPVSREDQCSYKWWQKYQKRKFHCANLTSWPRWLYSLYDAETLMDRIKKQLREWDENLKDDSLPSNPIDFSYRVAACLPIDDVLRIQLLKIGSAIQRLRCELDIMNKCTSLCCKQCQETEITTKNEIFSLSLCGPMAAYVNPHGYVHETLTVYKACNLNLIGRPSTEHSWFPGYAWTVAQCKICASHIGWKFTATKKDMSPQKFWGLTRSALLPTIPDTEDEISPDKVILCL
T6 sequence (Q16531 whole entry partner): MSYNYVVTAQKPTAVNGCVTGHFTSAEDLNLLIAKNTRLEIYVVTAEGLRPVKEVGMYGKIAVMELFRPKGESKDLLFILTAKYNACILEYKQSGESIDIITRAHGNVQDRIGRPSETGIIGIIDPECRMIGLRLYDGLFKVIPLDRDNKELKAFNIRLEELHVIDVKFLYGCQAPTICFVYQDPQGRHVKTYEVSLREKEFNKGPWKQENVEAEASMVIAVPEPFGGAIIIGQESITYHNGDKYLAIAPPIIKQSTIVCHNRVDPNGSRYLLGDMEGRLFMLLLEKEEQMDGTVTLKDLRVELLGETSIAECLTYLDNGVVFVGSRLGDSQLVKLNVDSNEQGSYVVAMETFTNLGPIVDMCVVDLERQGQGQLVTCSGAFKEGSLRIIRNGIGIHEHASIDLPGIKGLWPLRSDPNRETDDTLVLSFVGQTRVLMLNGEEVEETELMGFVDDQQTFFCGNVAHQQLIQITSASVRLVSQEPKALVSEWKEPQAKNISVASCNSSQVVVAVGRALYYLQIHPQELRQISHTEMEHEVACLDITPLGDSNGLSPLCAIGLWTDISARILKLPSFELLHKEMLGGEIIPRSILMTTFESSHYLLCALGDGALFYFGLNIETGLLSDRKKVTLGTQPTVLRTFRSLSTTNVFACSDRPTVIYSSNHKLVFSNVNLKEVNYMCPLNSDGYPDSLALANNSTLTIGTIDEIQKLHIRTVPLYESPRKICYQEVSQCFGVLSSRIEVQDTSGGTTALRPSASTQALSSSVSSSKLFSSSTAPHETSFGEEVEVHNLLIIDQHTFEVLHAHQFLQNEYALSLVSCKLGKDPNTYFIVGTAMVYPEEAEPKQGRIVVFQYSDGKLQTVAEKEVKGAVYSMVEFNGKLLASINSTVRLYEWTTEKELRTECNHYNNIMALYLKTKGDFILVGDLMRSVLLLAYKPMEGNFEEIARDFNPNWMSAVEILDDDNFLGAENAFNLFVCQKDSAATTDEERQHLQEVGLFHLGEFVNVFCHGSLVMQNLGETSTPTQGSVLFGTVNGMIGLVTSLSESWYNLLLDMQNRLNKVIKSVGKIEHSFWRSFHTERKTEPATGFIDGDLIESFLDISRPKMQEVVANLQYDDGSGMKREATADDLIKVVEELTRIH
T3 sequence (Q9UKS7 whole entry): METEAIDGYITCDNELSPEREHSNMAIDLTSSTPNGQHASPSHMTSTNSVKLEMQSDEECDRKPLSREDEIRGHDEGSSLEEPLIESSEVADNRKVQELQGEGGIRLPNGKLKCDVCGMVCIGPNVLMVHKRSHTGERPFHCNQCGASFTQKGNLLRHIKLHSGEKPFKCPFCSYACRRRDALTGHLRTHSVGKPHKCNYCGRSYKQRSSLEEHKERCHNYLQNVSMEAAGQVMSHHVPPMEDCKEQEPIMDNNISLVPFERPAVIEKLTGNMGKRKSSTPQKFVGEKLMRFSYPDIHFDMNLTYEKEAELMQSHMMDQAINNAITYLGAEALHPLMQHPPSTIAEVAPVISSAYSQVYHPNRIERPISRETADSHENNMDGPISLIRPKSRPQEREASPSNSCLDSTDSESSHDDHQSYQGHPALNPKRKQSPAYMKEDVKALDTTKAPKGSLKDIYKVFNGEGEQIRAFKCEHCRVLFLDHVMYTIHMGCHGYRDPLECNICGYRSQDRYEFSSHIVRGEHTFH
T3 sequence (Q96SW2 whole entry): as the sequence (Q96SW2 whole entry) above
T3 sequence (Q16531 whole entry partner): as the sequence (Q16531 whole entry partner) above
T4 sequence (Q96SW2 whole entry): as the sequence (Q96SW2 whole entry) above
T2 sequence (Q13422 whole entry): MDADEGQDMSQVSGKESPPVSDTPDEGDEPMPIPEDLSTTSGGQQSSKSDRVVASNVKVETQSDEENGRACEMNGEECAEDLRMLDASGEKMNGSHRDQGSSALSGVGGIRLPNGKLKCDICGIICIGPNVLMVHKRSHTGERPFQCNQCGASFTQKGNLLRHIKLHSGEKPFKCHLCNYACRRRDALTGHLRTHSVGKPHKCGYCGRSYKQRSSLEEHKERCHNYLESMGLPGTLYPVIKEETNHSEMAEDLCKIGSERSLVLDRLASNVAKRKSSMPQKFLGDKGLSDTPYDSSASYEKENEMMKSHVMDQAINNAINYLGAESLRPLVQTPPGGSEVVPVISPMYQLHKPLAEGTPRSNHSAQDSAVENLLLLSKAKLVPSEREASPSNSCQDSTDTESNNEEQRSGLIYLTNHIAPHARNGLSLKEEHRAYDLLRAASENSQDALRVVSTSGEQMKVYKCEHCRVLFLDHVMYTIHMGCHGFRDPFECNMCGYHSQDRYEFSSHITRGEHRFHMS
T2 sequence (Q96SW2 whole entry): as the sequence (Q96SW2 whole entry) above
T2 sequence (Q16531 whole entry partner): as the sequence (Q16531 whole entry partner) above
T7 sequence (P30291 whole entry): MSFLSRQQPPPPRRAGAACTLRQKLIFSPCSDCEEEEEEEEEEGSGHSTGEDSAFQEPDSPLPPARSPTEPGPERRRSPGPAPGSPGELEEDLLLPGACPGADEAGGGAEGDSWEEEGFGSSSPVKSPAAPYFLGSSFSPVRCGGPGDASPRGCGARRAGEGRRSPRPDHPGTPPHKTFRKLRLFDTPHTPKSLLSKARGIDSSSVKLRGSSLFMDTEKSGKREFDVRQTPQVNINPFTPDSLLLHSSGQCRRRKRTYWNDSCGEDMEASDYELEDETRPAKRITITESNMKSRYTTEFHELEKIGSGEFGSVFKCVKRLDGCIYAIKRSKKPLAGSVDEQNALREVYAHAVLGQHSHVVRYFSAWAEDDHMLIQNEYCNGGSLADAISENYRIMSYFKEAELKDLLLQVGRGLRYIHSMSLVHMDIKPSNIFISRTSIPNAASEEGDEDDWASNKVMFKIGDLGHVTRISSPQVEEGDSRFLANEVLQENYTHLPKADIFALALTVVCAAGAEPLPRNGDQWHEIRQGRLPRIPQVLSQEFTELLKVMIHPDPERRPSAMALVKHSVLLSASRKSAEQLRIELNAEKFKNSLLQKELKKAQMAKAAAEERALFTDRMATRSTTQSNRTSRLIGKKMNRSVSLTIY
T7 sequence (Q96SW2 whole entry): as the sequence (Q96SW2 whole entry) above
T7 sequence (Q16531 whole entry partner): as the sequence (Q16531 whole entry partner) above
T1 sequence (Q9UKT9 whole entry): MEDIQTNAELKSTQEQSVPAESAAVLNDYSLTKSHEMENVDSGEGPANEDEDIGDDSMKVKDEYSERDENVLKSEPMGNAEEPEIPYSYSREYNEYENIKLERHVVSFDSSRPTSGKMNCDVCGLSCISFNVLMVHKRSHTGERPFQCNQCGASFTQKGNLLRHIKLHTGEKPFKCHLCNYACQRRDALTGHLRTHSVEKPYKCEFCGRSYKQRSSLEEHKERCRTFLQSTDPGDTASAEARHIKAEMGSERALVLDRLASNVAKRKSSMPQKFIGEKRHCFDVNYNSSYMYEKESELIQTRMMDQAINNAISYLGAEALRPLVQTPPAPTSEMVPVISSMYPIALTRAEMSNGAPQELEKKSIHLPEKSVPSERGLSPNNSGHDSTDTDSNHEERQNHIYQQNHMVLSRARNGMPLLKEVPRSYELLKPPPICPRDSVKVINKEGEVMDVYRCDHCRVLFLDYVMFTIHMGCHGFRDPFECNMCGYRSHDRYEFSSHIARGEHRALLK
T1 sequence (Q96SW2 whole entry): as the sequence (Q96SW2 whole entry) above
T1 sequence (Q16531 whole entry partner): as the sequence (Q16531 whole entry partner) above

| SMILES | IKZF3 substrate protein remaining % (IKZF3; [3]) | IKZF 1 substrate protein remaining % (IKZF1; [3]) | IC50 [1] [nM] | IKZF2 substrate protein remaining % (IKZF2; [3]) | IC50 [2] [nM] | CK1a substrate protein remaining % (CK1α; [3]) | GSPT1 substrate protein remaining % (GSPT1; [3]) | Weel substrate protein remaining % (WEE1; [3]) | IKZF3 substrate protein remaining % (IKZF3; [4]) | IKZF 1 substrate protein remaining % (IKZF1; [4]) | IKZF2 substrate protein remaining % (IKZF2; [4]) | CK1a substrate protein remaining % (CK1α; [4]) | GSPT1 substrate protein remaining % (GSPT1; [4]) | Weel substrate protein remaining % (WEE1; [4]) |
| --- | --- | --- | --- | --- | --- | --- | --- | --- | --- | --- | --- | --- | --- | --- |
| Cc1csc2ncnc(C3=CCN(Cc4ccc5c(c4)CN(C4CCC(=O)NC4=O)C5=O)CC3)c12 (centres unmarked) [GT-04703, 3-(5-((4-(5-methylthieno[2,3-d]pyrimidin-4-yl)-3,6-dihydropyridin-1(2H)-yl)methyl)-1-oxoisoindolin-2-yl)piperidine-2,6-dione] | A (0% ≤ substrate protein remaining % ≤ 80%) | A (0% ≤ substrate protein remaining % ≤ 80%) | 100 to 500 | A (0% ≤ substrate protein remaining % ≤ 80%) | 500 to 1000 | A (0% ≤ substrate protein remaining % ≤ 80%) | A (0% ≤ substrate protein remaining % ≤ 80%) | B (80%< substrate protein remaining %≤ 100%) |  |  |  |  |  |  |
| Cc1ccsc1C1=CCN(Cc2cccc3c2C(=O)N(C2CCC(=O)NC2=O)C3=O)CC1 (centres unmarked) [GT-04731, 2-(2,6-dioxopiperidin-3-yl)-4-((4-(3-methylthiophen-2-yl)-3,6-dihydropyridin-1(2H)-yl)methyl)isoindoline-1,3-dione] | B (80%< substrate protein remaining %≤ 100%) | B (80%< substrate protein remaining %≤ 100%) | 500 to 1000 | B (80%< substrate protein remaining %≤ 100%) |  | B (80%< substrate protein remaining %≤ 100%) | A (0% ≤ substrate protein remaining % ≤ 80%) | B (80%< substrate protein remaining %≤ 100%) |  |  |  |  |  |  |
| O=C1CCC(N2Cc3cc(CN4CCN(c5noc6cc(F)ccc56)CC4)ccc3C2=O)C(=O)N1 (centres unmarked) [GT-04667, 3-(5-((4-(6-fluorobenzo[d]isoxazol-3-yl)piperazin-1-yl)methyl)-1-oxoisoindolin-2-yl)piperidine-2,6-dione] | A (0% ≤ substrate protein remaining % ≤ 80%) | A (0% ≤ substrate protein remaining % ≤ 80%) |  | A (0% ≤ substrate protein remaining % ≤ 80%) | 500 to 1000 | B (80%< substrate protein remaining %≤ 100%) | A (0% ≤ substrate protein remaining % ≤ 80%) | A (0% ≤ substrate protein remaining % ≤ 80%) |  |  |  |  |  |  |
| O=C1CCC(N2Cc3cc(CN4CCN(c5nc(N6CCOCC6)c6sccc6n5)CC4)ccc3C2=O)C(=O)N1 (centres unmarked) [GT-04906, 3-(5-((4-(4-morpholinothieno[3,2-d]pyrimidin-2-yl)piperazin-1-yl)methyl)-1-oxoisoindolin-2-yl)piperidine-2,6-dione] | B (80%< substrate protein remaining %≤ 100%) | A (0% ≤ substrate protein remaining % ≤ 80%) |  | B (80%< substrate protein remaining %≤ 100%) | < 500 | B (80%< substrate protein remaining %≤ 100%) | B (80%< substrate protein remaining %≤ 100%) | B (80%< substrate protein remaining %≤ 100%) |  |  |  |  |  |  |
| O=C1CCC(N2Cc3cc(CN4CCC(c5ncnc6sc(-c7ccccc7)cc56)CC4)ccc3C2=O)C(=O)N1 (centres unmarked) [GT-05159, 3-(1-oxo-5-((4-(6-phenylthieno[2,3-d]pyrimidin-4-yl)piperidin-1-yl)methyl)isoindolin-2-yl)piperidine-2,6-dione] | A (0% ≤ substrate protein remaining % ≤ 80%) | A (0% ≤ substrate protein remaining % ≤ 80%) |  | A (0% ≤ substrate protein remaining % ≤ 80%) | < 500 | B (80%< substrate protein remaining %≤ 100%) | A (0% ≤ substrate protein remaining % ≤ 80%) | B (80%< substrate protein remaining %≤ 100%) |  |  |  |  |  |  |
| O=C1CCC(N2C(=O)c3ccc(CN4CCN(c5ncnc6sc(Br)cc56)CC4)cc3C2=O)C(=O)N1 (centres unmarked) [GT-06309, 5-((4-(6-bromothieno[2,3-d]pyrimidin-4-yl)piperazin-1-yl)methyl)-2-(2,6-dioxopiperidin-3-yl)isoindoline-1,3-dione] |  |  |  |  | 1500 to 1900 |  |  |  | A (0% ≤ substrate protein remaining % ≤ 80%) | A (0% ≤ substrate protein remaining % ≤ 80%) | A (0% ≤ substrate protein remaining % ≤ 80%) | B (80%< substrate protein remaining %≤ 100%) | B (80%< substrate protein remaining %≤ 100%) | B (80%< substrate protein remaining %≤ 100%) |
| O=C1CCC(N2Cc3cc(CN4CCC(c5cccc6cnccc56)CC4)ccc3C2=O)C(=O)N1 (centres unmarked) [GT-04665, 3-(5-((4-(isoquinolin-5-yl)piperidin-1-yl)methyl)-1-oxoisoindolin-2-yl)piperidine-2,6-dione] | A (0% ≤ substrate protein remaining % ≤ 80%) | A (0% ≤ substrate protein remaining % ≤ 80%) |  | A (0% ≤ substrate protein remaining % ≤ 80%) | < 500 | A (0% ≤ substrate protein remaining % ≤ 80%) | A (0% ≤ substrate protein remaining % ≤ 80%) | A (0% ≤ substrate protein remaining % ≤ 80%) |  |  |  |  |  |  |
| Cc1cc2c(C3=CCN(Cc4ccc5c(c4)C(=O)N(C4CCC(=O)NC4=O)C5=O)CC3)ncnc2s1 (centres unmarked) [GT-06655, 2-(2,6-dioxopiperidin-3-yl)-5-((4-(6-methylthieno[2,3-d]pyrimidin-4-yl)-3,6-dihydropyridin-1(2H)-yl)methyl)isoindoline-1,3-dione] |  |  |  |  | 500 to 1000 |  |  |  | A (0% ≤ substrate protein remaining % ≤ 80%) | A (0% ≤ substrate protein remaining % ≤ 80%) | A (0% ≤ substrate protein remaining % ≤ 80%) | B (80%< substrate protein remaining %≤ 100%) | A (0% ≤ substrate protein remaining % ≤ 80%) | A (0% ≤ substrate protein remaining % ≤ 80%) |
| CC(C)c1cc2c(N3CCN(Cc4ccc5c(c4)CN(C4CCC(=O)NC4=O)C5=O)CC3)ncnc2s1 (centres unmarked) [GT-04705, 3-(5-((4-(6-isopropylthieno[2,3-d]pyrimidin-4-yl)piperazin-1-yl)methyl)-1-oxoisoindolin-2-yl)piperidine-2,6-dione] | A (0% ≤ substrate protein remaining % ≤ 80%) | A (0% ≤ substrate protein remaining % ≤ 80%) |  | A (0% ≤ substrate protein remaining % ≤ 80%) | 500 to 1000 | A (0% ≤ substrate protein remaining % ≤ 80%) | A (0% ≤ substrate protein remaining % ≤ 80%) | B (80%< substrate protein remaining %≤ 100%) |  |  |  |  |  |  |
| O=C1CCC(N2C(=O)c3ccc(CN4CC=C(c5ncnc6scc(-c7ccccc7)c56)CC4)cc3C2=O)C(=O)N1 (centres unmarked) [GT-06676, 2-(2,6-dioxopiperidin-3-yl)-5-((4-(5-phenylthieno[2,3-d]pyrimidin-4-yl)-3,6-dihydropyridin-1(2H)-yl)methyl)isoindoline-1,3-dione] |  |  |  |  | 1000 to 1500 |  |  |  | B (80%< substrate protein remaining %≤ 100%) | B (80%< substrate protein remaining %≤ 100%) | B (80%< substrate protein remaining %≤ 100%) | A (0% ≤ substrate protein remaining % ≤ 80%) | B (80%< substrate protein remaining %≤ 100%) | A (0% ≤ substrate protein remaining % ≤ 80%) |

Reference: EP4745137A1 (Gluetacs Therapeutics (Shanghai) Co., Ltd., priority 2023, dated 2025)
